What is called MIC is the lowest concentration found to suppress growth.

≈ marks a conversion by molar mass, not a printed value.

Assay [1] deals with Staph. 1756. The experiment in a line: MIC of the compound of Example 1 compared with norfloxacin, Staph. 1756. The assay is classed as cell-based. As to conditions: Staphylococcus. An excerpt:
(§1) Tables 1 and 2 below show examples of the MIC values of the compound of Example 1 compared with norfloxacin.

Assay [2] has as its system Staph.aur. FK 422. As to the kind of experiment: MIC of the compound of Example 1 compared with norfloxacin, Staph.aur. FK 422. In kind it is cell-based. The conditions noted are these: Staphylococcus aureus.
Description: as §1

In assay [3] the test system is E. coli C14. The experiment in a line: Microtitre assay/urine, MIC, E. coli C14. The assay is classed as cell-based. As to conditions: Escherichia coli.
Description: as §1
(§2) Microtitre assay/urine (80% pooled human urine,
(§3) 20% isosensitest medium)

The subject of assay [4] is Staph. 25151. As to the kind of experiment: Microtitre assay/urine, MIC, Staph. 25151. The assay is classed as cell-based. As to conditions: Staphylococcus.
Description: as §1, §2, §3

The subject of assay [5] is Staph. 133. The experiment in a line: MIC of the compound of Example 1 compared with norfloxacin, Staph. 133. As to conditions: Staphylococcus. In kind it is cell-based.
Description: as §1

Assay [6] has as its system Gram-positive and Gram-negative organisms. The conditions noted are these: J. Med. Chem. 23, 1358 (1980); cited from earlier work.
The mark [7] stands for this setting: C14, pH 7.1, E. coli C14, head prints only pH 7.1.
Where [8] appears, read: C14, pH 7.1, E. coli C14, urine pH 7.1, 80% pooled human urine, 20% isosensitest medium.
The mark [9] stands for this setting: pH 7.1, Staph. 25151, head prints only pH 7.1.
Where [10] appears, read: pH 7.1, Staph. 25151, urine pH 7.1, 80% pooled human urine, 20% isosensitest medium.

For `O=C1CN(c2cc3c(cc2F)c(=O)c(C(=O)O)cn3C2CC2)CCN1` [Example 1, 1-cyclopropyl-6-fluoro-1,4-dihydro-4-oxo-7-(3-oxo-1-piperazinyl)-3-quinolinecarboxylic acid], the minimal inhibitory concentration (MIC) in assay [1] was 0.25 µg/mL; in assay [2] it was 0.5 µg/mL; in assay [3] (setting [7]), 0.25 µg/mL (≈ 0.724 µM); in assay [3] (setting [8]) it was 0.25 µg/mL (≈ 0.724 µM); in assay [4] (setting [9]), 0.5 µg/mL (≈ 1.45 µM); in assay [4] (setting [10]), 0.25 µg/mL (≈ 0.724 µM). In assay [5], the MIC is 0.5 µg/mL.
As to `CCn1cc(C(=O)O)c(=O)c2cc(F)c(N3CCNCC3)cc21` [Norfloxacin, 1-ethyl-6-fluoro-1,4-dihydro-4-oxo-7-(1-piperazinyl)-3-quinolinecarboxylicacid], the MIC was found to be 2 µg/mL in assay [1]; 2 µg/mL in assay [2]; 0.5 µg/mL (≈ 1.57 µM) in assay [3] (setting [7]); 4 µg/mL (≈ 12.5 µM) in assay [3] (setting [8]); 4 µg/mL (≈ 12.5 µM) in assay [4] (setting [9]); 4 µg/mL (≈ 12.5 µM) in assay [4] (setting [10]). In addition, in assay [5], the MIC amounted to 1 µg/mL. Also, the antibacterial properties result in assay [6] was “has antibacterial properties”.

Values taken from US4588726A, “1-cyclopropyl-6-fluoro-1 ,4-dihydro-4-oxo-7-(3-oxo-1-piperazinyl)-3-quinolinecarboxylic acid antibacterial agents” (Bayer Aktiengesellschaft, priority 1984, dated 1986).
